From patent US20100093748A1, “SUBSTITUTED PIPERIDINES HAVING PROTEIN KINASE INHIBITING ACTIVITY” (ASTEX THERAPEUTICS LIMITED, priority 2006, published 2010) come the findings set out here.

T1 sequence (P31751 with tags, fused parts or gaps limits assumed): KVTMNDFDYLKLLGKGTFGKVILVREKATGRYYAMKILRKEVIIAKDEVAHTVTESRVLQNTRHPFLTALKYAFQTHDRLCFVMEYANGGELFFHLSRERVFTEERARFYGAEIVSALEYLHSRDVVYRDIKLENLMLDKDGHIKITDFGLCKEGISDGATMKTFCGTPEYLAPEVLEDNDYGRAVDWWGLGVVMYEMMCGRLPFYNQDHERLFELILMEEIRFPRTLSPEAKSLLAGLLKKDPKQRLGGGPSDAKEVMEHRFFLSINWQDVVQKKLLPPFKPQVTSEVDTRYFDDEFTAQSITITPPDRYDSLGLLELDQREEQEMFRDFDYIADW

One assay has as its target T1, PKB-PIF fusion protein (Homo sapiens, UniProt P31751).
T1 construct: PIF (fusion partner); made in house
Description: Measurement of PKB kinase inhibitory activity (IC50), radiometric filter plate assay. The following applies: 0.6 nM enzyme, 30 μM ATP, AKTide-2T substrate, 20 minutes. It counts as biochemical. The text has this:
The inhibition of protein kinase B (PKB) activity by compounds can be determined essentially as described by Andjelkovic et al. (Mol. Cell. Biol. 19, 5061-5072 (1999)) but using a fusion protein described as PKB-PIF and described in full by Yang et al (Nature Structural Biology 9, 940-944 (2002)). The protein is purified and activated with PDK1 as described by Yang et al. The peptide AKTide-2T (H-A-R-K-R-E-R-T-Y-S-F-G-H-H-A-OH) obtained from Calbiochem (#123900) is used as a substrate. A final concentration of 0.6 nM enzyme is used in a buffer that includes 20 mM MOPS pH 7.2, 30 μM ATP/γ^33P-ATP and 25 µM substrate. Compounds are added in DMSO solution to a final DMSO concentration of 2.5%. The reaction is allowed to proceed for 20 minutes before addition of excess orthophosphoric acid to quench activity. The reaction mixture is transferred to a phosphocellulose filter plate where the peptide binds and the unused ATP is washed away. After washing, scintillant is added and the incorporated activity measured by scintillation counting.
The % inhibition of the PKB activity is calculated and plotted in order to determine the concentration of test compound required to inhibit 50% of the PKB activity (IC50).
The term IC50 denotes the concentration that inhibits the measured activity by half. For the compound `Cc1ccc2nc(C3(N)CCN(c4ncnc5[nH]ccc45)CC3)[nH]c2c1` [Example 5, 4-(6-Methyl-1H-benzoimidazol-2-yl)-1-(7H-pyrrolo[2,3-d]pyrimidin-4-yl)-piperidin-4-ylamine], the IC50 is < 100 nM.

For `COc1cccc2[nH]c(C3(N)CCN(c4ncnc5[nH]ccc45)CC3)nc12` [Example 9, 4-(4-Methoxy-1H-benzoimidazol-2-yl)-1-(7H-pyrrolo[2,3-d]pyrimidin-4-yl)-piperidin-4-ylamine], the half-inhibitory concentration (IC50) was < 100 nM.

Take `NC1(c2nc3cnccc3[nH]2)CCN(c2ncnc3[nH]ccc23)CC1` [Example 10]: the IC50 is < 100 nM.

The subject of the next assay is phosphorylation of Serine-9 residue in Glycogen Synthase Kinase-3beta as surrogate marker of cellular PKB (Akt) activity. Description: In vitro MDA-MB-468 human breast adenocarcinoma GSK-3 phosphorylation assay. Format: cell-based. The following applies: MDA-MB-468 cells, 2 hours compound incubation, mean IC50, read-out: Cell pGSK3b IC50. The text has this: This assay determines the ability of test compounds to inhibit phosphorylation of Serine-9 residue in Glycogen Synthase Kinase-3beta (GSK-313) as a surrogate marker of cellular PKB (Akt) activity, as assessed using Acumen Explorer Fluorescent Plate-Reader technology. A MDA-MB-468 human breast adenocarcinoma cell line (LGC Promochem, Teddington, Middlesex, UK, Catalogue No. HTB-132) was routinely maintained in Dulbecco's modified Eagle's growth medium (DMEM; Invitrogen Limited, Paisley, UK Catalogue No. 11966-025) containing 10% heat-inactivated foetal calf serum (FCS; Sigma, Poole, Dorset, UK, Catalogue No. F0392) and 1% L-glutamine (Gibco, Catalogue No. 25030-024) at 37° C. with 5% CO2 up to a confluency of 70-90%.
For the phosphorylation assay, the cells were detached from the culture flask using Trypsin-EDTA (Invitrogen Limited, Catalogue No. 25300-062) and seeded into the wells of a black transparent-bottom Corning Costar Polystyrene 96 well plate (Fisher Scientific UK, Loughborough, Leicestershire, UK; Catalogue No. 3904 and DPS-130-020K) at a density of 5000 cells per well in 100 μl of complete growth media. The cells were incubated overnight at 37° C. with 5% CO2 to allow them to adhere.
On day 2, the cells were treated with test compounds and incubated for 2 hours at 37° C. with 5% CO2. Test compounds were prepared as 10mM stock solutions in DMSO and dosed directly to required concentration into test wells using non-contact (acoustic dispensing of multiple 2.5 nl droplets directly into assay wells) ECHO dosing technology (Labcyte Inc Sunnyvale, Calif., USA). Each plate contained control wells without test compound.
20 μl of fixing buffer (Phosphate Buffered Saline (PBS) containing 10% formaldehyde; Sigma; Catalogue No. F1635) was then added to each well to give a final well concentration 1.6%. Plates were then incubated for 30 minutes at room temperature prior to the fixative being removed. Each well was washed once with 250 μl of PBS and then 50 μl PBS added to each well. PBS was then aspirated and cells permeabilised and blocked by incubating each well with 50 μl of permeabilisation/blocking buffer (PBS containing 0.5% Tween 20 (Sigma; Catalogue No. P5927) and 5% Marvel Milk Powder (Andrews Pharmacy Ltd, Macclesfield, Cheshire, UK; Catalogue No. APC100199)) for 1 hour at room temperature prior to staining.
Following removal of Perm/Block buffer, 50 μl of primary anti-phospho-GSK-3β antibody (Cell Signalling Technology (New England Biolabs (Uk) Ltd.), Hitchin, Hertfordshire, UK; Catalogue No.9336 diluted 1:400 in Blocking buffer (PBS containing 5% Marvel and 0.05% Tween/Polysorbate 20) was added to each well and incubated overnight at 4° C.
Each well was washed three times in 250 μl of wash buffer (PBS containing 0.05% polysorbate 20), and cells incubated for 1 hour at room temperature with 50 μl of secondary fluorescently-labelled anti-rabbit Alexa Fluor 488 antibody (Molecular Probes, Invitrogen Limited, Catalogue No. A11008) diluted 1:750 in blocking buffer. Plates were washed three times in 250 μl of wash buffer and stored containing 50 μl of PBS at 4° C. until required.
Plates were analysed using an Acumen Explorer Plate-reader to quantify level of fluorescent signal that represents quantity of phosphorylated-GSK-313.
IC50 calculation—IC50 is the concentration of compound required to give 50% effect over the range of activity affected by the compound, between maximum (no compound) and minimum (excess level of compound) response control data. IC50 values were determined by fitting background corrected, dose response assay data to a 4 parameter logistic curve fit equation model with the minimum response set to zero. This was done using an in-house developed algorithm within the Origin graphing software package (OriginLab Corporation, Northampton, Mass., USA). […]
As for `NC1(c2nc3c(-c4cccc(S(N)(=O)=O)c4)cccc3[nH]2)CCN(c2ncnc3[nH]ccc23)CC1` [Example 94, 3-[2-[4-amino-1-(7H-pyrrolo[3,2-e]pyrimidin-4-yl)piperidin-4-yl]-1H-benzimidazol-4-yl]benzenesulfonamide], the IC50 is 47 nM.

Turning to `CS(=O)(=O)c1cccc(-c2cccc3[nH]c(C4(N)CCN(c5ncnc6[nH]ccc56)CC4)nc23)c1` [Example 95, 4-[4-(3-methylsulfonylphenyl)-1H-benzimidazol-2-yl]-1-(7H-pyrrolo[3,2-e]pyrimidin-4-yl)piperidin-4-amine], the half-inhibitory concentration (IC50) came to 49 nM.

Consider `NC1(c2nc3c(-c4cncc(F)c4)cccc3[nH]2)CCN(c2ncnc3[nH]ccc23)CC1` [Example 96, 4-[4-(5-fluoropyridin-3-yl)-1H-benzimidazol-2-yl]-1-(7H-pyrrolo[3,2-e]pyrimidin-4-yl)piperidin-4-amine], for which the IC50 stood at 44 nM.

Consider `Cc1ccc2[nH]c(C3(CN)CCN(c4ncnc5[nH]ccc45)CC3)nc2c1` [Example 97, (4-(5-methyl-1H-benzo[d]imidazol-2-yl)-1-(7H-pyrrolo[2,3-d]pyrimidin-4-yl)piperidin-4-yl)methanamine], for which the IC50 was 85 nM.

Turning to `Cc1ccc2[nH]c(C3(CN)CCN(c4ncnc5[nH]cc(Br)c45)CC3)nc2c1` [Example 98, (1-(5-bromo-7H-pyrrolo[2,3-d]pyrimidin-4-yl)-4-(5-methyl-1H-benzo[d]imidazol-2-yl)piperidin-4-yl)methanamine], the IC50 is 180 nM.

For `NCC1(c2nc3c(-c4ccccc4)cccc3[nH]2)CCN(c2ncnc3[nH]ccc23)CC1` [Example 99, (4-(4-phenyl-1H-benzo[d]imidazol-2-yl)-1-(7H-pyrrolo[2,3-d]pyrimidin-4-yl)piperidin-4-yl)methanamine], the IC50 was 15 nM.

Take `Cn1cc(-c2cccc3[nH]c(C4(CN)CCN(c5ncnc6[nH]ccc56)CC4)nc23)cn1` [Example 100]: the IC50 worked out at 14 nM.

In the case of `NCC1(c2nc3c(C4CCOC4)cccc3[nH]2)CCN(c2ncnc3[nH]ccc23)CC1` (centres unmarked) [Example 101, [4-[4-(oxolan-3-yl)-1H-benzimidazol-2-yl]-1-(7H-pyrrolo[3,2-e]pyrimidin-4-yl)piperidin-4-yl]methanamine], the concentration for half-maximal inhibition (IC50) was determined as 9.3 nM.

As to `NC1(c2nc3c(-c4ccccc4)cccc3[nH]2)CCN(c2ncnc3[nH]cnc23)CC1` [Example 103, 4-(4-Phenyl-1H-benzimidazol-2-yl)-1-(9H-purin-6-yl)piperidin-4-amine], the IC50 came to 33 nM.

With `COc1ccc(-c2cccc3[nH]c(C4(N)CCN(c5ncnc6[nH]cnc56)CC4)nc23)cc1` [Example 104, 4-[4-(4-methoxyphenyl)-1H-benzimidazol-2-yl]-1-(9H-purin-6-yl)piperidin-4-amine], the IC50 is 120 nM.

Regarding `CS(=O)(=O)c1ccc(-c2cccc3[nH]c(C4(N)CCN(c5ncnc6[nH]cnc56)CC4)nc23)cc1` [Example 105, 4-[4-(4-methylsulfonylphenyl)-1H-benzimidazol-2-yl]-1-(9H-purin-6-yl)piperidin-4-amine], the IC50 came out at 200 nM.

As to `NC1(c2nc3c(-c4ccoc4)cccc3[nH]2)CCN(c2ncnc3[nH]cnc23)CC1` [Example 106, 4-(4-furan-3-yl-1H-benzimidazol-2-yl)-1-(9H-purin-6-yl)piperidin-4-amine], the IC50 was determined as 52 nM.

Take `NC1(c2nc3c(-c4ccccc4)cccc3[nH]2)CCN(c2ncnc3[nH]ncc23)CC1` [Example 108, 4(4-phenyl-1H-benzo[d]imidazol-2-yl)-1-(1H-pyrazolo[3,4-d]pyrimidin-4-yl)piperidin-4-amine]: the IC50 stood at 350 nM.

For the compound `COc1ccc(-c2cccc3[nH]c(C4(N)CCN(c5ncnc6[nH]ncc56)CC4)nc23)cc1` [Example 109, 4-[4-(4-methoxyphenyl)-1H-benzo[d]imidazol-2-yl)-1-(1H-pyrazolo[3,4-d]pyrimidin-4-yl)piperidin-4-amine], the IC50 was 650 nM.

`CS(=O)(=O)c1ccc(-c2cccc3[nH]c(C4(N)CCN(c5ncnc6[nH]ncc56)CC4)nc23)cc1` [Example 110, 4-[4-(4-methylsulfonylphenyl)-1H-benzo[d]imidazol-2-yl)-1-(1H-pyrazolo[3,4-d]pyrimidin-4-yl)piperidin-4-amine]: the IC50 came to 490 nM.

On to `NC1(c2nc3c(-c4ccoc4)cccc3[nH]2)CCN(c2ncnc3[nH]ncc23)CC1` [Example 111, 4-(4-furan-3-yl-1H-benzo[d]imidazol-2-yl)-1-(1H-pyrazolo[3,4-d]pyrimidin-4-yl)piperidin-4-amine], for which the IC50 turned out to be 110 nM.

`CS(=O)(=O)c1ccccc1-c1cccc2nc(C3(N)CCN(c4ncnc5[nH]ccc45)CC3)[nH]c12` [Example 112, 4-[7-(2-methylsulfonylphenyl)-1H-benzimidazol-2-yl]-1-(7H-pyrrolo[3,2-e]pyrimidin-4-yl)piperidin-4-amine]: the IC50 is 300 nM.

Regarding `NCc1cc(-c2cccc3[nH]c(C4(N)CCN(c5ncnc6[nH]ccc56)CC4)nc23)ccc1F` [Example 113, 4-(4-(3-(aminomethyl)-4-fluorophenyl)-1H-benzo[d]imidazol-2-yl)-1-(7H-pyrrolo[2,3-d]pyrimidin-4-yl)piperidin-4-amine], the IC50 came to 38 nM.

With `CS(=O)(=O)Cc1cccc(-c2cccc3[nH]c(C4(N)CCN(c5ncnc6[nH]ccc56)CC4)nc23)c1` [Example 115, 4-(4-(3-(methylsulfonylmethyl)phenyl)-1H-benzo[d]imidazol-2-yl)-1-(7H-pyrrolo[2,3-d]pyrimidin-4-yl)piperidin-4-amine], the IC50 was found to be 270 nM.

Take `CS(=O)(=O)Cc1ccccc1-c1cccc2[nH]c(C3(N)CCN(c4ncnc5[nH]ccc45)CC3)nc12` [Example 116, 4-(4-(2-(methylsulfonylmethyl)phenyl)-1H-benzo[d]imidazol-2-yl)-1-(7H-pyrrolo[2,3-d]pyrimidin-4-yl)piperidin-4-amine]: the IC50 was 47 nM.
